Experimental data as given in a melting point compilation (Tetko et al.; mined from patent text by program, amines drawn as free bases though some values may be those of a salt).

SMILES | melting point [°C]
O=C(SCC1C(=O)OCC1c1ccccc1)c1ccccc1F (stereo unspecified) | 92 to 94
CCCCOc1ccc(C(=O)Nc2ccc3cc(CN4CCCC4CC(C)C)cnc3c2C)cc1 (stereo unspecified) | 128 to 130
O=S(c1ccc2c(c1)C(=C1CCN(CC3CC3)CC1)c1ccccc1C=C2)C(F)(F)F (stereo unspecified) | 146 to 148
O=C(O)c1ccc(OCC2CCCCC2)cc1 | 209 to 210
COc1cc(OC)nc(NC(=O)NS(=O)(=O)c2ccccc2C(O)c2cccs2)n1 (stereo unspecified) | 152 to 154
O=C1CCC(C(=O)O)(c2ccccc2)CC1 | 136 to 140
CC(=O)SCCC(=O)N1CCC=C1C(=O)OC(C)(C)C | 59 to 62
COC(=O)c1cccc(CBr)c1[N+](=O)[O-] | 91 to 95
Cc1ccc(/C=C/C(=O)N[C@@H]2N=C(c3ccccc3)c3ccccc3N(C)C2=O)cc1 | 133 to 135
O=C(CCNc1c(C(=O)O)[nH]c2cc(Cl)ccc12)c1ccc(F)c(F)c1 | 260 to 264
CC(=O)OC(c1cc2n(n1)CCOC2=O)C1(Br)C(=O)N2C(C(=O)OCc3ccc([N+](=O)[O-])cc3)=CSC21 (stereo unspecified) | 107 to 110
COC(=O)CCc1cc2nc(C)ccc2n1S(=O)(=O)c1ccccc1 | 98 to 115
Nc1c(-c2ccccc2O)c2ccccc2[nH]c1=O | 235 to 237
CON=C(c1ccccc1)c1ccc2c(c1)C(C)(C)CCN2CCOc1ccc(CC(OCC(F)(F)F)C(=O)O)cc1 (stereo unspecified) | 62 to 64
Cn1cc(C2=C(c3ccc4ccccc4c3)C(=O)NC2=O)c2ccccc21 | 180 to 184
CCOC(=O)c1cn2c(Cl)cccc2n1 | 143 to 145
NC(=O)c1cc(-c2ccncc2)c[nH]c1=O | > 300
O=C1Cc2cccc(Oc3cccc(Cl)c3)c2O1 | 105 to 106
COc1ccc2c(c1)c1c3c(c(-c4c(Cl)cccc4Cl)cc1n2CCO)C(=O)NC3=O | 229 to 231
O=C(Nc1ccc(OCCCN2CCOCC2)c2ccccc12)c1cc(F)cc(N2CCCCC2)c1 | 90 to 92
O=Cc1ccc(-c2cc3c4c(c2)cc(F)n4C(=O)CNC3)cc1 | 212 to 214
O=C(O)[C@@H]1CSCN1C(=O)OCc1ccccc1 | 58 to 63
Clc1ccc2c(c1)CNc1ccccc1O2 | 123 to 125
O=Cc1cccc(-c2cccs2)n1 | 48 to 50
CCCCCCc1ccc(C=CC(=O)c2ccc(OCC=C(C)C)cc2OCC(=O)OCC)cc1 | 56 to 57
COc1ccc2oc(C(C)N(O)C(N)=O)cc2c1 (stereo unspecified) | 149 to 151

SMILES | melting point [°C]
c1ccc(OCCn2ccnc2)cc1 | 88
Cn1c(-c2ccccc2Nc2cccc(C(F)(F)F)c2)n[nH]c1=O | 178 to 180
COC(=O)C(=O)c1ccc(C(=O)NCCOc2ccc3ccccc3c2)cc1 | 114 to 115
COc1ccc(Br)cc1-c1cc(-c2ccc(Br)cc2)no1 | 153 to 154
COc1ccc(-c2ccc(N)nn2)cc1OC(C)C | 184
COc1cc2c(cc1OCc1ccccc1)CCN(C(=O)c1cc(OC)c(OC)c(OC)c1)C2 | 63 to 64
O=C(O)Cc1ccc2c(c1)C(=O)c1cc3ccccc3cc1C2=O | > 220
CCCCCCCCCCCC/C(=C\C=C\C(=O)O)c1ccc(OC)cc1 | 85 to 88
CCOC(=O)C1=CC(CF)(CF)Oc2ccc([N+](=O)[O-])cc21 | 96 to 98
O=c1c2ccccc2c(-c2ccccc2)cn1CCCO | 84
COc1cc(C(C)=O)ccc1OCCCN1CCC(c2noc3cc(Cl)ccc23)CC1 | 116 to 118
C[C@H](c1ccccc1)n1c(N)nc2c(N)nc3ccccc3c21 | 135 to 140
CC(C)(C)OC(=O)C(Nc1ccccc1)c1cccc(F)c1 (racemic) | 90
CC(C)c1ccc2c(c1)c(SCc1ccccc1)c(CC(C)(C)C(=O)O)n2Cc1ccc(Cl)cc1 | 135 to 137
Cc1ccc(Cl)c(Nc2ccccc2-c2n[nH]c(=S)o2)c1Cl | 257 to 259
CCN1C(=O)C(C(=O)Nc2cccc(S(C)=O)c2)c2cc3c(cc21)CCO3 (stereo unspecified) | 180 to 185
Cc1cc(C)c(C)c(-c2cc3cnc(NCCCN4CCN(C)CC4)nc3nc2NC(=O)NC(C)(C)C)c1C | 185 to 198
CCOC(=O)c1cc(OCCC2CCN(c3ccc(Cl)nn3)CC2)cs1 | 112
Cc1ccsc1C(=O)c1cccn1N | 42 to 44
CSCCOC(=O)N(C)c1nnc(-c2cccnc2)s1 | 126 to 128
COc1cc(C(F)(F)F)nn1-c1ccc(NC(=O)c2ccncc2F)cc1 | 160 to 161
CCOC(=O)Cn1ncc(-c2ccccc2)c1-c1ccc(N(C)C)cc1 | 99 to 101
CC(=O)N(CCCC(=O)O)C1CCCc2ccccc21 (stereo unspecified) | 141 to 142
CON=C(c1nnco1)c1ccccc1COc1cc(C)ccc1C | 134 to 135
Cc1[nH]cc2c(=O)n(-c3ccc(Cl)cc3)nc-2c1-c1cccc(C(=O)N2CCCC2)c1 | 253 to 255
CC(C)(C)c1ccc(-c2ccc(COc3cccc4cc(NS(=O)(=O)C(F)(F)F)ccc34)c(F)c2)cc1 | 162 to 164

SMILES | melting point [°C]
CCOC(=O)C1=C(C)NC(CO)=C(C(=O)OCC)C1c1ccccc1OC (stereo unspecified) | 125 to 126
Cc1c(Sc2ccc(Cl)cc2)nn(-c2ccc(S(C)(=O)=O)cc2)c(=O)c1C#N | 199 to 201
CCCCN1C[C@@H](C(=O)O)N(C(=O)[C@H](C)CSC(=O)c2ccccc2)C1=O | 119
Nc1nc(N)c(CCCNc2ccc(C(=O)N[C@@H](CCC(=O)O)C(=O)O)c(Cl)c2)c(=O)[nH]1 | 150 to 178
C=CCc1[nH]cc2c1-c1ccc(Cl)cc1C(c1ccccc1F)=NC2 | 212 to 214
COCCNC(=O)c1cc2c(nc(C)n2C)c2c1CCC(c1ccccc1)O2 (stereo unspecified) | 254 to 256
Cc1c(C)n(CC2CC2)c2c(OCc3ccc(F)cc3)nncc12 | 137 to 138
O=C1N=C(NN2CCCC2)SC1=Cc1cccc(-c2cc(F)c(O)c(C34CC5CC(CC(C5)C3)C4)c2)c1 | 293 to 296
O=c1c(-c2ccccc2)c[nH]n1-c1ncccn1 | 159 to 160
O=C1CCn2c(nc3ccccc32)N1 | > 260
CC(C)OC(=O)c1ncn2c1cnc1ccccc12 | 205 to 206
NS(=O)(=O)c1ccc(CCNC(=O)CCn2cnc3c(=O)[nH]cnc32)cc1 | 212 to 216
CCC1COC(=O)C(=CC(=O)OC)N1 (stereo unspecified) | 68 to 70
CC1C(=O)N2CCCC(C(=O)OC(C)(C)C)N2C1=O (stereo unspecified) | 127 to 128
CCOC(=O)NNc1ccc(N(C)CC(C)O)nn1 (stereo unspecified) | 150 to 152
O=C(O)c1ccc(Cl)nc1NCc1ccncc1 | 217 to 220
CC(C)c1cccc(-n2cnc(CO)c2)c1 | 76 to 77
S=c1n(CCc2ccccc2)ccn1C1CCc2ccccc2C1 (stereo unspecified) | 140 to 142
COc1ccc2c3c1OC1C[C@@H](O)C=CC31CCN(C(=O)NC(C)C)C2 (stereo partly specified) | 106 to 108
COc1ccc(S(=O)(=O)CCCc2ccc(CC(=O)O)cc2)cc1 | 149 to 150
COc1ccc(C2=NN(C3CCCC3)C(=O)[C@H]3CC=CC[C@@H]23)cc1Cl (relative stereo) | 201 to 202
O=Cc1cnn(Cc2ccccc2)c1-c1ccccc1 | 99 to 100
C=C(C)c1cnn(-c2ccnc3cc(Cl)ccc23)c1 | 85.5 to 88
CC1Nc2cc(NC(=O)c3ccc(-c4ccccc4)cc3)ccc2N1C (stereo unspecified) | 272 to 274
N#CCCNc1nonc1-c1nc2ccccc2n1CC(=O)c1ccc(Cl)cc1 | 191 to 192
O=C(NC(Cc1c[nH]c2ccccc12)C(=O)NCc1cc(C(F)(F)F)cc(C(F)(F)F)c1)c1ccccc1 (stereo unspecified) | 182 to 184

SMILES | melting point [°C]
Cc1sc(Br)c(C)c1C(=O)O | 183 to 184
Cc1ccc(-c2cc3c(s2)CCCC(C(=O)Nc2ccc(CN(C)C4CCOCC4)cc2)=C3)cc1 | 201 to 203
CCCCOc1nc(N)c2[nH]c(=O)n(CCCNc3cccc(CC(=O)O)c3)c2n1 | 247
CCN1CC2(CCN(Cc3ccccc3)CC2)OC1=O | 105 to 106
COc1cc2cc(C(C#N)(C(C)CC#N)N3CCOCC3)sc2cc1OC (stereo unspecified) | 162 to 165
CN(C)C=CC(=O)c1ccc(C(=O)N2Cc3ccnn3Cc3ccccc32)cc1 | 225 to 230
CCCc1nc2c(N)nc3ccccc3c2n1CC1(C(N)=O)CCC1 | 234 to 237
O=C(NN=Cc1ccc(Cl)cc1)c1cccnc1 | 188 to 190
CCCC1=C(C#N)C(c2ccccc2Cl)c2c(n[nH]c2CCC)N1 (stereo unspecified) | 237
CN(C)C=NC(=Nc1ccccc1)N1CCOCC1 | 109 to 112
Cc1cc2c(cc1C(=O)N=C(N)N)S(=O)(=O)CC2(C)O (stereo unspecified) | 243 to 245
O=[N+]([O-])c1cc(Cl)c(Oc2ccccc2)cc1NCc1cccc(C(F)(F)F)c1 | 140 to 142
NC(=O)c1nnn(Cc2ccc(C(=O)c3ccc(Cl)cc3)cc2)c1N | 229 to 231
Cc1c(CN2CCc3c(c4ccccc4n3C)C2=O)ncn1S(=O)(=O)N(C)C | 194 to 196
N#Cc1cnc2cc3c(cc2c1Cl)ncn3CCN1CCOCC1 | 205 to 207
CNC(=O)[C@@H](NC(=O)[C@@H](CC(=O)O)n1ccc(-c2ccc(-c3ccc(C#N)cc3)cc2)c1)C(C)(C)C | 142 to 144
O=c1c2ccccc2ccc2ccc(S(=O)(=O)C(F)(F)F)cc12 | 145 to 149
COc1ccc(-n2cnc3ccc(-c4nnc(SCc5cccc(F)c5)o4)cc32)cc1 | 155 to 156
O=C(O)c1ccc2c(c1)CCCC2NC(=O)c1cccc(Oc2ccccc2)c1 (stereo unspecified) | 155 to 160
CC(C)(COC(=O)COc1ccc(C(=O)CN2Cc3cc(C#N)ccc3C2=O)cc1)NS(=O)(=O)c1cccnc1 | 190 to 192
CCOC(=O)CS(=O)(=O)CCC=C1SC=CS1 | 103 to 104
CC(C)(C)C(O)(Cn1cncn1)C1CCC1 (stereo unspecified) | 94 to 99.5
CCOC(Cc1ccc2oc(CN3c4ccccc4Sc4ccccc43)cc2c1)C(=O)O (stereo unspecified) | 120 to 121
